Legend:
[1] = ROS-generating activity in cell-free system (H2DCFDA, HRP); format: biochemical; details: GSH 0.25 μM or 2.5 μM added to SsnB 10 μM + H2DCFDA + HRP
Description: FIG. 2D and FIG. 2E illustrate the ROS generating capacity of SsnB evaluated in a cell-free system containing H2DCFDA (25 μM), horseradish peroxidase (HRP, 5 units/ml), SsnB (10 μM) and glutathione (GSH, 0.25 or 2.5 μM) alone or in various combinations. Optical density (O.D.) at 540 nm were taken at different time points and plotted.
In a reaction system, after the removal of acetate group by cellular esterases and oxidation by reactive oxygen species, the non-fluorescent carboxy-H2DCFDA dye is oxidized to fluorescent molecule carboxy-DCF. To measure the ROS-generating activity of SsnB, the oxidation of carboxy-H2DCFDA dye was monitored in a cell-free system containing carboxy-H2DCFDA dye, horseradish peroxidase (HRP) and SsnB at 540 nm. HRP was used to supply esterase since without esterase carboxy-H2DCFDA is not sensitive to oxidant. […] After addition of HRP (5 units/ml) in the reaction mixture containing SsnB (10 μM)+H2DCFDA dye (25 μM), the OD value increased by 2% in the first 240 sec and further increased by 8% after 15 min compared to H2DCFDA+HRP reaction, indicating the increased oxidation of H2DCFDA to the fluorescent compound.

[2] = test system: caspase-3 in neuroblastoma cells; test: Cleaved caspase-3 by immunofluorescence and Western blotting; format: cell-based, human; details: NAC 1 and 5 mM pretreatment, SsnB 10 μM; SH-SY5Y and SK-N-BE(2) cells
Description: For immunofluorescence staining, cells grown in Lab-TekII chamber slides (Fisher Scientific, Pittsburgh, Pa.) were treated with SsnB in complete culture medium. After treatments, cells were washed with 1×PBS, fixed with 4% paraformaldehyde/PBS for 20 min, and permeabilized with 0.2% Triton X-100/PBS for 10 min at room temperature. Cells were washed with 1×PBS for 3 times and blocked with 5% immunoglobulin (IgG) free-bovine serum albumin (BSA; Jackson ImmunoResearch Laboratories, West Grove, Pa.) in 1×PBS for overnight at 4° C. Cells were incubated with antibody raised against active form of caspase-3 (Cell Signaling Technology, Danvers, Mass.) diluted in 2.5% BSA/PBS for overnight at 4° C. Primary antibodies were detected with secondary antibodies conjugated with fluorescein isothiocyanate (FITC; Santa Cruz Biotechnology, Dallas, Tex.) for 2 h at room temperature. After washing with 1×PBS, cells were mounted with antifade Vectashield mounting media (Vector Laboratories, Burlingame, Calif.), and signals were visualized under Nikon-E600 fluorescence microscope. Nuclei were counterstained with 4′,6-diamidino-2-phenylindole (DAPI; Sigma).
After treatment with SsnB, cells were collected, washed with 1×PBS, and lysed with 1× cell lysis buffer (Cell Signaling Technology, Danvers, Mass.) containing phenylmethylsulfonyl fluoride (PMSF) and protease inhibitors (aprotinin and leupeptin) for 30 min on ice, and centrifuged at 12000×rpm for 10 min at 4° C. Supernatant (total cell protein) was collected and stored at −80° C. Protein concentration was determined by bicinchoninic acid method using BCA protein assay kit (Pierce/ThermoScientific, Waltham, Mass.). Equal amount of proteins were diluted with 5× Laemmli samples loading buffer and boiled for five minutes. The proteins were subjected to sodium dodecyl sulfate (SDS)-polyacrylamide gel electrophoresis and analyzed by Western blots. Briefly, after electrophoresis, proteins were transferred on polyvinylidene difluoride (PVDF) membrane at 100 volt for 3 h in cold room. Membrane was blocked with 5% non-fat dry milk/TBST (20 mM Tris-Cl, pH 7.4; 150 mM NaCl with 0.1% Tween-20) for 4 h at room temperature followed by incubation in primary antibodies diluted in 2.5% non-fat dry milk/TBST for overnight at 4° C. After washing with TBST, membrane was incubated with secondary antibodies (horseradish peroxidase-conjugated goat anti-rabbit or goat anti-mouse IgG; Santa Cruz Biotechnology, Dallas, Tex.) diluted in 2.5% non-fat dry milk/TBST for 3 h at room temperature. Signals were detected by chemiluminiscence detection kit (Pierce/Thermo Fisher Scientific, Rockford, Ill.). Primary antibodies used were cleaved caspase-3 and β-actin (Cell Signaling Technology), N-myc and p53 (Santa Cruz Biotechnology).
At cellular level, mitochondria- or receptor (Fas/FasL)-mediated pathways activate caspase signaling cascade which in turn induces DNA damage and initiates programmed cell death (apoptosis). To determine whether SsnB-induced cell death is mediated by caspase activation, Western blotting as well as immunofluorescence assay were performed to detect the active form of caspase-3 in neuroblastoma cells treated with SsnB for 2 days (SH-SY5Y and IMR-32 cells), 3 days (NGP cells) or 4 days (SKNF-1 and SK-N-BE(2) cells). The number of cleaved caspase-3 positive cells were quantitated by ImageJ programme and plotted. […]

[3] = test system: human neuroblastoma cell lines (SH-SY5Y, SKNF-1, NGP, IMR-32 and SK-N-BE(2) cells); test: MTT cell viability assay; format: cell-based; details: NAC 1 mM or 5 mM pretreatment 1 h, then SsnB 10 μM; p<0.05 vs SsnB alone
Source text: Human neuroblastoma cell lines (SH-SY5Y, IMR-32, SK-N-BE(2) and SKNF-1 cells) were obtained from The American Type Culture Collection (ATCC; Manassas, Va.), and NGP cells were kind gift from Garrett M. Brodeur (The Children's Hospital of Philadelphia, Philadelphia, Pa.). All cell lines were maintained in complete Dulbecco's Modified Eagle's Medium (DMEM) supplemented with 10% fetal bovine serum (FBS; Atlanta Biologicals, Lawrenceville, Ga.) and 1× antibiotic-antimycotic solution (containing 100 U/ml penicillin, 100 μg/ml streptomycin and 0.25 μg/ml amphotericin B), and grown at 37° C. in a humidified incubator with 5% CO2. Stock solution of SsnB was prepared in dimethyl sulfoxide (DMSO). Cells treated with different concentrations of SsnB in DMEM with 10% FBS were grown for subsequent days. Cells treated with equal volume of DMSO were used as control.
The viability of SsnB-treated cells was determined by MTT assay following manufacturer's instructions (Roche diagnostics corporation, Indianapolis, Ind.). Briefly, cells (1×10^4 cells/well) grown in 96-well cell culture plate were incubated with or without SsnB in 100 μl of complete culture medium with 10% FBS. After treatments, cells were incubated with 10 μl of MTT reagent for 4 h and then incubated overnight in solubilization buffer (100 μl) at 37° C. Absorbance of the formazan product was read at 575 nm in spectramax spectrophotometer (Molecular Devices, Sunnyvale, Calif.). A reference wavelength of 690 nm was used to detect background. The measured absorption directly correlated with the number of viable cells in culture. The experiments were performed in triplicate and repeated at least three times.
MTT assay was carried out to examine the effects of SsnB on viability of all the above listed neuroblastoma cells. After 2 days (SH-SY5Y and IMR-32), 3 days (NGP cells) or 4 days (SKNF-1 and SK-N-BE(2) cells) treatment with SsnB (1, 5, 10 and 20 μM), MTT cell viability assays were performed.

[4] = test system: reactive oxygen species in neuroblastoma cells; test: ROS generation, H2DCFDA fluorometry assay; format: cell-based, human; details: NAC 1 and 5 mM, SsnB 10 μM; p<0.05 vs SsnB alone
Description: The production of reactive oxygen species (ROS) in SsnB-treated neuroblastoma cells was detected by a cell-permeable fluorescence probe H2DCFDA (carboxy-2′,7′-dichlorodihydrofluorescein diacetate) according to the manufacturer's instructions (Invitrogen, Carlsbad, Calif.). Briefly, neuroblastoma cells were cultured in DMEM with 10% FBS in Lab-TekII chamber slides (Fisher Scientific, Pittsburg, Pa.) and treated with SsnB for 2 days (SH-SY5Y and IMR-32 cells), 3 days (NGP cell) or 4 days (SKNF-1 and SK-N-BE(2) cells). After treatments, cells were washed with Hank's buffered salt solution (HBSS; Thermo Scientific, Waltham, Mass.) and incubated with 25 μM of carboxy-H2DCFDA dye for 30 min at 37° C. in dark. Nuclei were counterstained with DAPI. Cells were washed three times with HBSS, mounted with Vectashield mounting medium (Vector Laboratories), and immediately examined under Nikon-E600 fluorescence microscopy equipped with fluorescein isothiocyanate (FITC) filter. Oxidation of H2DCFDA probe occurs almost exclusively in the cytosol, and generates a fluorescence that is proportional to ROS generation in that cell. As a negative control, cells without H2DCFDA dye were used to detect autofluorescence. The fluorometric analysis to detect generation of ROS was performed. Briefly, after treatments with SsnB as mentioned above, cells were labeled with carboxy-H2DCFDA dye (25 μM) for 30 min at 37° C. Cells were trypsinized, washed, and re-suspended in PBS and fluorescence intensity was monitored at excitation wavelength 485 nm and emission wavelength 530 nm with a spectramax spectrophotometer (Molecular Devices, Sunnyvale, Calif.).
SsnB-induced generation of ROS was also evaluated by fluorometry assay. Neuroblastoma cells as treated above were incubated with H2DCFDA dye for 30 min and the fluorescence intensity was measured at 485 nm (excitation wavelength) and 530 nm (emission wavelength).

Row | Compound | OD value on addition of GSH [1] | activation of caspase-3 in SsnB-treated cells [2] | viability of SsnB-treated cells [3] | ROS levels in SsnB-treated cells [4]
1 | N[C@@H](CCC(=O)N[C@@H](CS)C(=O)NCC(=O)O)C(=O)O [GSH, glutathione, reference compound] | lowers the OD value in a dose dependent manner |  |  | 
2 | CC(=O)NCCSSCCN [NAC, N-acetylcystamine, reference compound] |  | inhibited the activation of caspase-3 | significantly increased the viability | significantly reduced ROS levels

Source: US9446019B2, “Sparstolonin B based pharmaceutical agent for neuroblastoma treatment” (University of South Carolina, priority 2013, dated 2016)
